Activity calls are given as the source filed them.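 The calls were made as follows: active = IC50 below 20 µM in the dose response test; inactive = the rest.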
biological target: Type-1 angiotensin II receptor (Homo sapiens) (UniProt P30556); assay: AGTR1 antagonism selectivity check – cell-based, CHO-K1 PathHunter, luminescence, set 2, selectivity assay for APJ antagonist project, SAR follow-up (AID 488994); conditions: CHO-K1 AGTR1 PathHunter beta-arrestin
Sequence (P30556 whole entry, looked up): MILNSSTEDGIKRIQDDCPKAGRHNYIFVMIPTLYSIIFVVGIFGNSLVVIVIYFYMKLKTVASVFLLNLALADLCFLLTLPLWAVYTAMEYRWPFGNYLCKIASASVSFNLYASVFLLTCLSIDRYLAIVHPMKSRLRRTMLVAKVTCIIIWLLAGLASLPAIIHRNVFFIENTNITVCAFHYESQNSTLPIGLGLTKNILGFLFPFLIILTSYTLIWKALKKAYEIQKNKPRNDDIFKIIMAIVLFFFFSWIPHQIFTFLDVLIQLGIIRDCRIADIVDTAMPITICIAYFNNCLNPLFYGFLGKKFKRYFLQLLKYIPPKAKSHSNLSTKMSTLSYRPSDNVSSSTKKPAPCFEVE

Compound | IC50
O=C(Nc1ccc(CSc2ncccn2)cc1)c1ccccc1 | > 79 µM (inactive)
Cc1ccnc(SCc2cc(=O)c(OC(=O)c3ccc([N+](=O)[O-])o3)co2)n1 | > 79 µM (inactive)
COc1cc(CSc2nc(C)cc(C)n2)ccc1OC(=O)c1ccccc1 | > 79 µM (inactive)
COc1cc(CSc2nc(C)cc(C)n2)ccc1OC(=O)c1cccnc1 | > 79 µM (inactive)
COc1cc(CSc2nc(C)cc(C)n2)ccc1OC(=O)c1ccc([N+](=O)[O-])cc1 | > 79 µM (inactive)
Cc1ccnc(SCc2cc(=O)c(OCc3ccc(Cl)c([N+](=O)[O-])c3)co2)n1 | > 79 µM (inactive)

The next lines start with the values.

IC50 | Compound
> 79 µM (inactive) | Cc1ccnc(SCc2cc(=O)c(OC(=O)c3ccno3)co2)n1
> 79 µM (inactive) | Cc1ccnc(SCc2cc(=O)c(OC(=O)C(C)C)co2)n1
> 79 µM (inactive) | CC(=O)Oc1coc(CSc2nccc(C)n2)cc1=O
> 79 µM (inactive) | Cc1ccnc(SCc2cc(=O)c(OC(=O)C(C)(C)C)co2)n1
